Test results published in ChEMBL document CHEMBL3525990, “Organic anion transporter 3 interacts selectively with lipophilic β-lactam antibiotics” (Drug Metab Dispos, 2013).

What was measured:
[1] = target: T1, Organic anion transporter 3 (Mus musculus, UniProt O88909); experiment: Inhibition of mouse OAT3 expressed in CHO cells assessed as inhibition of fluorescein uptake at 500 uM over 20 mins relative to untreated-control; type: ADME, cell-based
T1 sequence (O88909 whole entry): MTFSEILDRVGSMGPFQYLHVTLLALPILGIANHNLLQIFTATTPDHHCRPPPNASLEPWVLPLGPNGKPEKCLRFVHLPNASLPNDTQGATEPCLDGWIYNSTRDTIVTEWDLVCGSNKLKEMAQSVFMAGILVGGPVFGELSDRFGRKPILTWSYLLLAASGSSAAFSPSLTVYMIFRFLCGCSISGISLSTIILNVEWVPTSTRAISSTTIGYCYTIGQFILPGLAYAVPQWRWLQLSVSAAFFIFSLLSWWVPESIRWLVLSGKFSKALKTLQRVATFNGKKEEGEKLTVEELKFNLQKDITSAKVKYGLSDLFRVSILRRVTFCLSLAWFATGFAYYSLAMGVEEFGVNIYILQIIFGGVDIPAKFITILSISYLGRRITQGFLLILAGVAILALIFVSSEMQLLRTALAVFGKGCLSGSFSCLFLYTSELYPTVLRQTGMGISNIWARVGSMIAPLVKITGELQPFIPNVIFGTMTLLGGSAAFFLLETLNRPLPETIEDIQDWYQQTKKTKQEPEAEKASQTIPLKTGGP

[2] = target: T2, Organic anion transporter 3 (Homo sapiens, UniProt Q8TCC7); experiment: (§1) Inhibition of human OAT3 expressed in CHO cells assessed as inhibition of fluorescein uptake at 500 uM over 20 mins relative to untreated-control; type: ADME, cell-based; details: cho, 20 min, 500 µM
T2 sequence (Q8TCC7 whole entry): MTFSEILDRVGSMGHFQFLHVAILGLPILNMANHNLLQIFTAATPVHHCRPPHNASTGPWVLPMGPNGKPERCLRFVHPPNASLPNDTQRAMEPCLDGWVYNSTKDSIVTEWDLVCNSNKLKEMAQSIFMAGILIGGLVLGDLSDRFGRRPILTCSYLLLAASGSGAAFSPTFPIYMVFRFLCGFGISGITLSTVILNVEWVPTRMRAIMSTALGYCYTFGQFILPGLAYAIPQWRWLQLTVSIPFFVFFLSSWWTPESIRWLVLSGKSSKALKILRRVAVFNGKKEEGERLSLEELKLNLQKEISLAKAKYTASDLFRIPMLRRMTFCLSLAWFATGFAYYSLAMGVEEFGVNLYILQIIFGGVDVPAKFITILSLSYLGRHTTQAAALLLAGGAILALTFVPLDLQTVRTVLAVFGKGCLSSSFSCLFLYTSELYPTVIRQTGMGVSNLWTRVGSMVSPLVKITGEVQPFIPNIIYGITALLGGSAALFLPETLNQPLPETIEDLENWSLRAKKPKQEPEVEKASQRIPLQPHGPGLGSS

[3] = target: T3, Solute carrier family 22 member 6 (Mus musculus, UniProt Q8VC69); experiment: Inhibition of mouse OAT1 expressed in CHO cells assessed as inhibition of fluorescein uptake at 500 uM over 20 mins relative to untreated-control; type: ADME, cell-based
T3 sequence (Q8VC69 whole entry): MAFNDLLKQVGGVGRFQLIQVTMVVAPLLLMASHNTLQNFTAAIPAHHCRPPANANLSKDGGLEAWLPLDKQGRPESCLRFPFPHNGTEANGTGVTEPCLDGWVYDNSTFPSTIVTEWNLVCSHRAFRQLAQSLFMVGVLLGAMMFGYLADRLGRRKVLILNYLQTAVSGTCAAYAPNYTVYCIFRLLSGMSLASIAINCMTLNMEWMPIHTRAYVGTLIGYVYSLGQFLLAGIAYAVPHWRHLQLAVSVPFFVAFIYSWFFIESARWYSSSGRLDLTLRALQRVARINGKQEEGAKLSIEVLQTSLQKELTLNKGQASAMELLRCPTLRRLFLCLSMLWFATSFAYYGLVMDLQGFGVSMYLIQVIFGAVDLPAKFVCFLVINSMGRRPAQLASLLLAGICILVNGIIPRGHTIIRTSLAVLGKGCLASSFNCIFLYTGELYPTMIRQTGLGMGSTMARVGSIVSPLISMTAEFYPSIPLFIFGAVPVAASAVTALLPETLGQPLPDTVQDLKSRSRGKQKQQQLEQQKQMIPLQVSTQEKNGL

OAT3 [4] = target: T4, OAT3 (Homo sapiens, UniProt Q8TCC7); experiment: Inhibition of human OAT3 expressed in CHO cells assessed as inhibition of fluorescein uptake over 20 mins relative to untreated-control; type: ADME, cell-based; details: CHO cells expressing human OAT3, probe fluorescein
T4 sequence (Q8TCC7 whole entry): T2 sequence (Q8TCC7 whole entry)

[5] = target: T2, Organic anion transporter 3; experiment: Inhibition of human OAT3 using estrone-3-sulfate as substrate; type: ADME
[6] = target: T1, Organic anion transporter 3; experiment: Inhibition of mouse OAT3 expressed in CHO cells assessed as inhibition of fluorescein uptake at 1 mM over 20 mins relative to untreated-control; type: ADME, cell-based; details: 1000 µM
OAT3 [7] = target: T4, OAT3; experiment: as §1; type: ADME, cell-based; details: CHO cells expressing human OAT3, probe fluorescein
[8] = target: T1, Organic anion transporter 3; experiment: Inhibition of mouse OAT3 expressed in CHO cells assessed as inhibition of fluorescein uptake over 20 mins; type: ADME, cell-based
[9] = target: T1, Organic anion transporter 3; experiment: Inhibition of mouse OAT3 expressed in CHO cells assessed as inhibition of fluorescein uptake at 1 mM after 10 mins; type: ADME, cell-based; details: 1000 µM
[10] = target: T1, Organic anion transporter 3; experiment: Inhibition of mouse OAT3 expressed in CHO cells assessed as inhibition of fluorescein uptake over 20 mins by Michaelis-Menten method; type: ADME, cell-based
[11] = target: T2, Organic anion transporter 3; experiment: Inhibition of human OAT3 expressed in CHO cells assessed as inhibition of fluorescein uptake over 20 mins by Michaelis-Menten method; type: ADME, cell-based
[12] = target: T2, Organic anion transporter 3; experiment: Inhibition of human OAT3 expressed in CHO cells assessed as inhibition of fluorescein uptake at 1 mM over 20 mins relative to untreated-control; type: ADME, cell-based; details: 1000 µM

| SMILES | inhibition (INH) [1] | inhibition (INH) [2] | inhibition (INH) [3] | IC50 [8] | also measured |
| --- | --- | --- | --- | --- | --- |
| CC1(C)S[C@@H]2[C@H](N)C(=O)N2[C@H]1C(=O)O | Not Active | Not Active | Not Active |  |  |
| CC1(C)S[C@@H]2[C@H](NC(=O)[C@H](N)c3ccccc3)C(=O)N2[C@H]1C(=O)O [AMPICILLIN] | Not Active | Not Active | Not Active |  |  |
| CC1(C)S[C@@H]2[C@H](NC(=O)[C@H](NC(=O)N3CCNC3=O)c3ccccc3)C(=O)N2[C@H]1C(=O)O [AZLOCILLIN] | Not Active | Not Active | Not Active |  |  |
| C[C@H]1[C@H](NC(=O)/C(=N\OC(C)(C)C(=O)O)c2csc(N)n2)C(=O)N1S(=O)(=O)O [AZTREONAM] | Not Active | Not Active | Not Active |  |  |
| CC1(C)S[C@@H]2[C@H](NC(=O)C(C(=O)O)c3ccccc3)C(=O)N2[C@H]1C(=O)O (some centres not stated) [CARBENICILLIN] | Not Active | Not Active |  |  | inhibition at 20 min (OAT3 [4]): 70% |
| N[C@@H](C(=O)N[C@@H]1C(=O)N2C(C(=O)O)=C(Cl)CS[C@H]12)c1ccccc1 [CEFACLOR ANHYDROUS] | Not Active | Active | Not Active |  | IC50 [5]: 120 µM |
| CC1=C(C(=O)O)N2C(=O)[C@@H](NC(=O)[C@H](N)c3ccc(O)cc3)[C@H]2SC1 [CEFADROXIL] | Not Active |  |  |  | inhibition (INH) [6]: Not Active; inhibition at 20 min, 500 µM (OAT3 [7]): 20% |
| CO[C@@]1(NC(=O)CSCC#N)C(=O)N2C(C(=O)O)=C(CSc3nnnn3C)CS[C@@H]21 [CEFMETAZOLE] | Not Active | Not Active | Active | 105 µM |  |
| CCN1CCN(C(=O)N[C@@H](C(=O)N[C@@H]2C(=O)N3C(C(=O)O)=C(CSc4nnnn4C)CS[C@H]23)c2ccc(O)cc2)C(=O)C1=O [CEFOPERAZONE] | Not Active | Not Active |  |  |  |
| CO/N=C(\C(=O)N[C@@H]1C(=O)N2C(C(=O)O)=C(COC(C)=O)CS[C@H]12)c1csc(N)n1 [CEFOTAXIME] | Not Active | Not Active |  |  |  |
| CO[C@@]1(NC(=O)Cc2cccs2)C(=O)N2C(C(=O)O)=C(COC(N)=O)CS[C@@H]21 [CEFOXITIN] | Not Active | Not Active | Not Active | 57 µM |  |
| NC(=O)c1cc[n+](CC2=C(C(=O)O)N3C(=O)[C@@H](NC(=O)[C@@H](c4ccccc4)S(=O)(=O)[O-])[C@H]3SC2)cc1 [CEFSULODIN] | Not Active | Not Active | Not Active |  |  |
| CC(C)(O/N=C(\C(=O)N[C@@H]1C(=O)N2C(C(=O)[O-])=C(C[n+]3ccccc3)CS[C@H]12)c1csc(N)n1)C(=O)O [CEFTAZIDIME] | Not Active | Not Active | Not Active |  |  |
| CO/N=C(\C(=O)N[C@@H]1C(=O)N2C(C(=O)O)=C(CSC(=O)c3ccco3)CS[C@H]12)c1csc(N)n1 [CEFTIOFUR] | Not Active | Not Active | Not Active | 35.7 µM |  |
| CO/N=C(\C(=O)N[C@@H]1C(=O)N2C(C(=O)O)=C(COC(N)=O)CS[C@H]12)c1ccco1 [CEFUROXIME] | Not Active | Not Active | Not Active |  |  |
| Cc1onc(-c2ccccc2)c1C(=O)N[C@@H]1C(=O)N2[C@@H]1SC(C)(C)[C@@H]2C(=O)O [OXACILLIN] | Active | Active | Not Active | 35 µM |  |

Now from value to molecule, other results behind:

| inhibition (INH) [1] | inhibition (INH) [2] | inhibition (INH) [3] | IC50 [8] | SMILES | also measured |
| --- | --- | --- | --- | --- | --- |
|  | Not Active | Not Active |  | CC1=C(C(=O)O)N2C(=O)[C@@H](NC(=O)[C@H](N)c3ccccc3)[C@H]2SC1 [CEPHALEXIN ANHYDROUS] |  |
| Not Active | Not Active |  | 33.3 µM | CC(=O)OCC1=C(C(=O)O)N2C(=O)[C@@H](NC(=O)Cc3cccs3)[C@H]2SC1 [CEPHALOTHIN] |  |
| Not Active | Not Active | Not Active | 30.9 µM | Cc1onc(-c2ccccc2Cl)c1C(=O)N[C@@H]1C(=O)N2[C@@H]1SC(C)(C)[C@@H]2C(=O)O [CLOXACILLIN] |  |
| Active | Active | Active | 16.6 µM | Cc1onc(-c2c(Cl)cccc2Cl)c1C(=O)N[C@@H]1C(=O)N2[C@@H]1SC(C)(C)[C@@H]2C(=O)O [DICLOXACILLIN] |  |
| Not Active | Not Active | Not Active | 116 µM | COc1cccc(OC)c1C(=O)N[C@@H]1C(=O)N2[C@@H]1SC(C)(C)[C@@H]2C(=O)O [METHICILLIN] |  |
| Not Active | Not Active | Not Active | 34.9 µM | CCOc1ccc2ccccc2c1C(=O)N[C@@H]1C(=O)N2[C@@H]1SC(C)(C)[C@@H]2C(=O)O [NAFCILLIN] |  |
|  | Active |  | 89.4 µM | CC1(C)S[C@@H]2[C@H](NC(=O)Cc3ccccc3)C(=O)N2[C@H]1C(=O)O [PENICILLIN G] |  |
| Not Active | Not Active | Not Active | 48.6 µM | CC1(C)S[C@@H]2[C@H](NC(=O)COc3ccccc3)C(=O)N2[C@H]1C(=O)O [PENICILLIN V] |  |
| Not Active | Not Active | Active |  | CCN1CCN(C(=O)N[C@@H](C(=O)N[C@@H]2C(=O)N3[C@@H]2SC(C)(C)[C@@H]3C(=O)O)c2ccccc2)C(=O)C1=O [PIPERACILLIN] |  |
| Not Active | Not Active |  | 3.02 µM | CCCN(CCC)S(=O)(=O)c1ccc(C(=O)O)cc1 [PROBENECID] | inhibition (INH) [9]: Active; inhibition (INH) [10]: Dose-dependent effect; inhibition (INH) [6]: Active; inhibition (INH) [11]: Dose-dependent effect; inhibition (INH) [12]: Active |
| Not Active | Not Active |  | 233 µM | CC1(C)S[C@@H]2[C@H](NC(=O)[C@H](C(=O)O)c3ccsc3)C(=O)N2[C@H]1C(=O)O [TICARCILLIN] |  |
